Experimental data published in US10933051B2, “Carbapenem compounds and compositions for the treatment of bacterial infections” (FOB Synthesis, Inc., priority 2017, dated 2021).

What was measured:
Type in all cases: cell-based
Design in all cases: unit not given here
[1] = test system: E. coli FSEco-054; experiment: Antimicrobial Susceptibility Test (CLSI), Test Example 2; conditions: Table 4; strain produces ESBL
Description: (§1) Antimicrobial Susceptibility Test was performed by the CLSI (Clinical and Laboratory Standards Institute) methods. The agar dilution method for determining antimicrobial susceptibility was carried out using Mueller Hinton-II agar and the amount of inoculation was 10^4CFU/spot. Broth dilution tests were performed using the Mueller Hinton-II broth. All assays were run with the indicated control strains, available from the ATCC (American Type Culture Collection, Rockville, Md.).

[2] = test system: A. baumannii FSAb-029; experiment: as above; conditions: Table 4; strain produces OXA-2, IMP-1
Description: as §1

[3] = test system: A. baumannii FSAb-065; experiment: as above; conditions: Table 4; strain produces OXA-2, VIM-2
Description: as §1

[4] = test system: K. pneumoniae ATCC BAA-1904; experiment: as above; conditions: Table 4; strain produces KPC-3
Description: as §1

[5] = test system: P. aeruginosa FSPa-121; experiment: as above; conditions: Table 4; strain produces OXA-17
Description: as §1

[6] = test system: A. baumannii FSAb-056; experiment: as above; conditions: Table 4; strain produces OXA-23, OXA-51
Description: as §1

[7] = test system: A. baumannii FSAb-039; experiment: as above; conditions: Table 4; strain produces OXA-51
Description: as §1

[8] = test system: P. aeruginosa FSPa-102; experiment: Antimicrobial Susceptibility Test (CLSI), Test Example 3; conditions: Table 6; strain produces IMP-1
Description: as §1

[9] = test system: E. coli FSEco-054; experiment: as above; conditions: Table 6; strain produces ESBL
Description: as §1

[10] = test system: A. baumannii FSAb-029; experiment: as above; conditions: Table 6; strain produces OXA-2, IMP-1
Description: as §1

[11] = test system: A. baumannii FSAb-141; experiment: as above; conditions: Table 6; strain produces PER-1, OXA-23, 51, 66
Description: as §1

[12] = test system: K. pneumoniae BAA-1904; experiment: as above; conditions: Table 6; strain produces KPC-3
Description: as §1

[13] = test system: P. aeruginosa FSPa-141; experiment: as above; conditions: Table 6; strain produces VIM-2
Description: as §1

[14] = test system: A. baumannii FSAb-056; experiment: as above; conditions: Table 6; strain produces OXA-23, 51
Description: as §1

[15] = test system: A. baumannii FSAb-039; experiment: as above; conditions: Table 6; strain produces OXA-51
Description: as §1

Structure (SMILES) | antimicrobial susceptibility, E. coil FSEco-054 [1] | antimicrobial susceptibility, A. baumannii FSAb-029 [2] | antimicrobial susceptibility, A. baumannii FSAb-065 [3] | antimicrobial susceptibility, K. pneumoniae BAA-1904 [4] | antimicrobial susceptibility, P. aeruginosa FSPa-121 [5] | antimicrobial susceptibility, A. baumannii FSAb-056 [6] | antimicrobial susceptibility, A. baumannii FSAb-039 [7] | antimicrobial susceptibility, Pa FSPa-102 [8] | antimicrobial susceptibility, Ec FSEco-054 [9] | antimicrobial susceptibility, Ab FSAb-029 [10] | antimicrobial susceptibility, Ab FSAb-141 [11] | antimicrobial susceptibility, Kp BAA-1904 [12] | antimicrobial susceptibility, Pa FSPa-141 [13] | antimicrobial susceptibility, Ab FSAb-056 [14] | antimicrobial susceptibility, Ab FSAb-039 [15]
C[C@@H](O)[C@H]1C(=O)N2C(C(=O)O)=C(CN3CC[C@@H](NC(=O)c4ccc(O)c(O)c4Cl)C3)[C@H](C)[C@H]12 [Compound 29] | 2 | 1 | 1 | >32 | 2 | 4 | 8 |  |  |  |  |  |  |  | 
C[C@@H](O)[C@H]1C(=O)N2C(C(=O)O)=C(CN3C[C@H](NC(=O)c4ccc(O)c(O)c4Cl)[C@@H](O)C3)[C@H](C)[C@H]12 [Compound 30] | 2 | 2 | 0.5 | 16 | 2 | 4 | 4 |  |  |  |  |  |  |  | 
C[C@@H](O)[C@H]1C(=O)N2C(C(=O)O)=C(CN3C[C@@H](O)[C@H](NC(=O)c4ccc(O)c(O)c4Cl)C3)[C@H](C)[C@H]12 [Compound 31] | 2 | 2 | 0.5 | 32 | 2 | 4 | 4 |  |  |  |  |  |  |  | 
C[C@@H](O)[C@H]1C(=O)N2C(C(=O)O)=C(CN3C[C@@H](NC(=O)c4ccc(O)c(O)c4Cl)C[C@H]3C(N)=O)[C@H](C)[C@H]12 [Compound 32] | 4 | 2 | 1 | >32 | 1 | 16 | >32 |  |  |  |  |  |  |  | 
C[C@@H](O)[C@H]1C(=O)N2C(C(=O)O)=C(CN3C[C@@H](NC(=O)c4ccc(O)c(O)c4Cl)C[C@@H]3C(N)=O)[C@H](C)[C@H]12 [Compound 33] | 4 | 4 | 1 | >32 | 2 | 8 | 32 |  |  |  |  |  |  |  | 
C[C@@H](O)[C@H]1C(=O)N2C(C(=O)O)=C(CN3CCCC3CNC(=O)c3ccc(O)c(O)c3Cl)[C@H](C)[C@H]12 (some centres unmarked) [Compound 34] | 2 | 2 | 8 | >32 | 8 | 8 | 8 |  |  |  |  |  |  |  | 
C[C@@H](O)[C@H]1C(=O)N2C(C(=O)O)=C(CN3CCCC3CNC(=O)c3ccc(O)c(O)c3Cl)[C@H](C)[C@H]12 (some centres unmarked) [Compound 35] | 2 | 4 | 2 | >32 | 4 | 4 | 8 |  |  |  |  |  |  |  | 
C[C@@H](O)[C@H]1C(=O)N2C(C(=O)O)=C(CN3CCC(C(=O)NCc4ccc(O)c(O)c4Cl)C3)[C@H](C)[C@H]12 (some centres unmarked) [Compound 37] | 8 | 8 | 4 | >32 | 8 | 16 | 32 |  |  |  |  |  |  |  | 
C[C@@H](O)[C@H]1C(=O)N2C(C(=O)O)=C(CN3CC(NC(=O)c4ccc(O)c(O)c4Cl)C3)[C@H](C)[C@H]12 [Compound 38] | 2 | 0.5 | 0.25 | 16 | 4 | 4 | 4 |  |  |  |  |  |  |  | 
C[C@@H](O)[C@H]1C(=O)N2C(C(=O)O)=C(CN3CC(C(=O)NCc4ccc(O)c(O)c4Cl)C3)[C@H](C)[C@H]12 [Compound 39] | 2 | 4 | 1 | 8 | 16 | 8 | 8 |  |  |  |  |  |  |  | 
C[C@@H](O)[C@H]1C(=O)N2C(C(=O)[O-])=C(C[N+](C)(C)CCNC(=O)c3ccc(O)c(O)c3Cl)[C@H](C)[C@H]12 [Compound 40] | 4 | 8 | 4 | 16 | 4 | 8 | 16 |  |  |  |  |  |  |  | 
C[C@@H](O)[C@H]1C(=O)N2C(C(=O)O)=C(CN(CCNC(=O)c3ccc(O)c(O)c3F)CCNC(=O)c3ccc(O)c(O)c3F)[C@H](C)[C@H]12 [Compound 101] |  |  |  |  |  |  |  | 1 | 2 | 0.25 | 0.5 | >32 | 1 | 4 | 2
C[C@@H](O)[C@H]1C(=O)N2C(C(=O)O)=C(CN(CCCNC(=O)c3ccc(O)c(O)c3F)CCNC(=O)c3ccc(O)c(O)c3F)[C@H](C)[C@H]12 [Compound 102] |  |  |  |  |  |  |  | 1 | 1 | 0.25 | 0.5 | >32 | 2 | 4 | 1
C[C@@H](O)[C@H]1C(=O)N2C(C(=O)O)=C(CN(CCCNC(=O)c3ccc(O)c(O)c3F)CCCNC(=O)c3ccc(O)c(O)c3F)[C@H](C)[C@H]12 [Compound 103] |  |  |  |  |  |  |  | 2 | 1 | 0.25 | 1 | >32 | 8 | 4 | 1
